One data set concerns the target T1, CYP2B6 (Homo sapiens, UniProt P20813).
T1 construct: purchased
The data set is described as follows: Incubation assay with recombinant CYP (Vivid kit). The data set is classed as biochemical. Particulars: recombinant enzyme, Vivid substrate. As to the method:
(§1) Possible interactions of examined PARPi with human CYP3A4, CYP2C8, CYP2D6, CYP1A2, CYP2B6, CYP2C9, CYP2C19, and CYP3A5 were evaluated using commercial Vivid CYP450 Screening Kits. […] CYP isoenzymes were mixed with the NADPH-regeneration system, and resulting solutions were added to the wells. After 10 min preincubation, the solution of NADP ^+ and a particular Vivid substrate were added to start the CYP-catalyzed reaction. Fluorescence corresponding to the levels of produced metabolites was detected using the microplate reader Infinite […] (Tecan, Männedorf, Switzerland) in a kinetic mode (1-minute intervals). The data from the 15 min interval were selected to analyze the results.

For another data set, the target named is T2, CYP3A5 (Homo sapiens, UniProt P20815).
T2 construct: purchased
The data set is described as follows: Incubation assay with recombinant CYP (Vivid kit). The data set is classed as biochemical. Particulars: recombinant enzyme, Vivid substrate. The method, then:
as §1

The subject of data set [1] is ABCG2. Particulars: 12-days exposure; MCF-10A; cited from earlier work.
A further data set addresses ABCB1 (Homo sapiens, UniProt P08183). The data set is described as follows: Accumulation assay with daunorubicin in MDCKII-ABCB1 cells. The class given is cell-based. The arrangement: expressed in transfected cells; host or cells: MDCKII (canine kidney) subline MDCKII-ABCB1, gift of Dr. Alfred Schinkel. Particulars: read-out: ABCB1 inhibition IC50. As to the method: (§2) The conduction of accumulation assays followed the slightly changed protocol described previously. In the study, MDCKII-par, MDCKII-ABCB1, MDCKII-ABCC1, MDCKII-ABCG2, and primary explants were seeded into 12-well plates in variant densities, 22.0 × 10^4, 15.0 × 10^4, 25.0 × 10^4, 22.0 × 10^4, and 15.0 × 10^4 cells/well, respectively. After 24 h incubation, two washing steps with 1 × PBS were applied. […] The cells were then incubated under standard conditions for 30 min. Next steps included placing the plates on ice, washing the cells with ice-cold 1 × PBS two-times, and detaching the cells with the ice-cold 10 × trypsin without phenol red. Following trypsinization, cells were resuspended in 1 × PBS containing 2% FBS. Subsequently, cell suspensions were transferred into the test tubes and kept on ice. The fluorescence in cells was measured immediately after the collection of their suspensions using flow cytometer Sony SA3800 Spectral Cell Analyzer (Sony Biotechnology, San Jose, CA, USA). SA3800 software (Sony Biotechnology, San Jose, CA, USA) was used to evaluate the data.

The next data set concerns MDCKII-par cells. The data set can be described thus: Accumulation assay in control parent cells. The class given is cell-based, Canine. As to the method:
as §2

Data set [2] deals with T3, ABCG2 (Homo sapiens, UniProt Q9UNQ0).
T3 construct: expressed in transfected cells; host or cells: MDCKII (canine kidney) subline MDCKII-ABCG2, gift of Dr. Alfred Schinkel
The data set can be described thus: Accumulation assay with mitoxantrone in MDCKII-ABCG2 cells. Particulars: normalized to Ko143, read-out: ABCG2 inhibition IC50. The class given is cell-based. As to the method:
as §2

The test system of data set [3] is ABCG2. Particulars: Abcg2-knockout mice, MDCKII-ABCG2 cells; cited from earlier work.
The next data set can be described thus: MTT proliferation assay. The data set is classed as cell-based, Canine. Conditions: dog, MDCKII-ABCB1 cells, comparative MTT, read-out: antiproliferative IC50. As to the method:
The viability MTT assay was employed in several experimental sets, including induction studies, comparative viability assays, and drug combinations. First, 1.3 × 10^4 (MDCKII sublines), 1.2 × 10^4 (A431 sublines), 1.5 × 10^4 (MCF-7), and 1.0 × 10^4 (primary NSCLC explants) cells were seeded in 96-well plates. After seeding, cells were left to refresh in incubator for 24 h. Secondly, the medium was removed, and the serial dilutions of the drugs or drug combinations were added to the cells. Next to these variants, a medium with 40% DMSO and vehicle-containing media were tested as nonviable and unaffected viability controls, respectively. After an additional 48 h of incubation, the cells were washed with 1 × PBS and then treated with 1 mg/mL MTT solution in Opti-MEM. Subsequently, cells were incubated for 60 min under standard conditions. After MTT treatment, generated formazan crystals were solubilized with DMSO for 10 min. Wavelengths of 570 nm (formazan) and 690 nm (background) were used for absorbance measurements using a microplate reader Infinite 200 Pro NanoQuant (Tecan, Männedorf, Switzerland).
In general terms: Formazan colour is commonly taken as a measure of viable cells.

Bounds are passed on as bounds.

T3 sequence (Q9UNQ0 whole entry): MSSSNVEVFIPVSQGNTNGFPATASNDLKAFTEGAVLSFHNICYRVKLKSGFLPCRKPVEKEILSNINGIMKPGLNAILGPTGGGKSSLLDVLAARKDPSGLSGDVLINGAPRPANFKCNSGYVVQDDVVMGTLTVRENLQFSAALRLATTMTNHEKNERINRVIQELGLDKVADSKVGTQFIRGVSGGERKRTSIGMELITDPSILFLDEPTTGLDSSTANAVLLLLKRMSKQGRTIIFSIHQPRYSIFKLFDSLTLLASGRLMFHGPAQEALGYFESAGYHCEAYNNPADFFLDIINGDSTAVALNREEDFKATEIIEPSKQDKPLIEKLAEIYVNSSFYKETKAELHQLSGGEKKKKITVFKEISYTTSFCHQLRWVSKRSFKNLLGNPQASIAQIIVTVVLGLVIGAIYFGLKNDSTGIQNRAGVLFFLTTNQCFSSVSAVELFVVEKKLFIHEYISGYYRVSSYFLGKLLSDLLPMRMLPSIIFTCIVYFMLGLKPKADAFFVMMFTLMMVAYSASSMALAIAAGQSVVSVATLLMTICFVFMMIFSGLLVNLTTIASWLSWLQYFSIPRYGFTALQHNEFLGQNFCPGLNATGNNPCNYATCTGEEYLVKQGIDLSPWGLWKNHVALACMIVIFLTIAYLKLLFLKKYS
T2 sequence (P20815 whole entry): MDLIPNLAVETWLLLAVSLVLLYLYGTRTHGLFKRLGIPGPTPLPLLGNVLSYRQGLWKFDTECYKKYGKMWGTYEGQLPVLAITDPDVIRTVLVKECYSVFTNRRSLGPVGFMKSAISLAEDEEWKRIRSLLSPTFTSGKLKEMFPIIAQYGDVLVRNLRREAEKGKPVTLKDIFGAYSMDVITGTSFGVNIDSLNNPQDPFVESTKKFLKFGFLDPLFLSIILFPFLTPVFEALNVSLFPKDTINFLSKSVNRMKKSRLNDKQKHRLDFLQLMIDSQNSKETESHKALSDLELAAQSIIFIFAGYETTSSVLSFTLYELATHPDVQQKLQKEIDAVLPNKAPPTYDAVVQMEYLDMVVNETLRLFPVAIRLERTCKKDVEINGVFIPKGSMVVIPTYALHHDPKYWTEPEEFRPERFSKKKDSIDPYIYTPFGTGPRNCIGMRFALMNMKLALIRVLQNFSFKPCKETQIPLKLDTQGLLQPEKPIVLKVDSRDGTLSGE
T1 sequence (P20813 whole entry): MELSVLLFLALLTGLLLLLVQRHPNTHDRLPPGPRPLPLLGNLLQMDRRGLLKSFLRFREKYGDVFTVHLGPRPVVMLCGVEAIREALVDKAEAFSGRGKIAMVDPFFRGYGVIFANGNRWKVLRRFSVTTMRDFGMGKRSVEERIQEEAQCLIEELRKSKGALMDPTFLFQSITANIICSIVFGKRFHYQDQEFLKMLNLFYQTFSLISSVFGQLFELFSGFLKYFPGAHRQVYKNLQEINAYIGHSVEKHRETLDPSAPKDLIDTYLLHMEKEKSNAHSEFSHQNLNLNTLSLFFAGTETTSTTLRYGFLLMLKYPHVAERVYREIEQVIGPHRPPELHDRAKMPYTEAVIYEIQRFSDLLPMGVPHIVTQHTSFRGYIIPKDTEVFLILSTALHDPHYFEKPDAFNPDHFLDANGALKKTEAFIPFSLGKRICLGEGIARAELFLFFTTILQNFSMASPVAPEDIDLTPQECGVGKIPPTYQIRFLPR
Chain of ABCB1 (P08183 whole entry): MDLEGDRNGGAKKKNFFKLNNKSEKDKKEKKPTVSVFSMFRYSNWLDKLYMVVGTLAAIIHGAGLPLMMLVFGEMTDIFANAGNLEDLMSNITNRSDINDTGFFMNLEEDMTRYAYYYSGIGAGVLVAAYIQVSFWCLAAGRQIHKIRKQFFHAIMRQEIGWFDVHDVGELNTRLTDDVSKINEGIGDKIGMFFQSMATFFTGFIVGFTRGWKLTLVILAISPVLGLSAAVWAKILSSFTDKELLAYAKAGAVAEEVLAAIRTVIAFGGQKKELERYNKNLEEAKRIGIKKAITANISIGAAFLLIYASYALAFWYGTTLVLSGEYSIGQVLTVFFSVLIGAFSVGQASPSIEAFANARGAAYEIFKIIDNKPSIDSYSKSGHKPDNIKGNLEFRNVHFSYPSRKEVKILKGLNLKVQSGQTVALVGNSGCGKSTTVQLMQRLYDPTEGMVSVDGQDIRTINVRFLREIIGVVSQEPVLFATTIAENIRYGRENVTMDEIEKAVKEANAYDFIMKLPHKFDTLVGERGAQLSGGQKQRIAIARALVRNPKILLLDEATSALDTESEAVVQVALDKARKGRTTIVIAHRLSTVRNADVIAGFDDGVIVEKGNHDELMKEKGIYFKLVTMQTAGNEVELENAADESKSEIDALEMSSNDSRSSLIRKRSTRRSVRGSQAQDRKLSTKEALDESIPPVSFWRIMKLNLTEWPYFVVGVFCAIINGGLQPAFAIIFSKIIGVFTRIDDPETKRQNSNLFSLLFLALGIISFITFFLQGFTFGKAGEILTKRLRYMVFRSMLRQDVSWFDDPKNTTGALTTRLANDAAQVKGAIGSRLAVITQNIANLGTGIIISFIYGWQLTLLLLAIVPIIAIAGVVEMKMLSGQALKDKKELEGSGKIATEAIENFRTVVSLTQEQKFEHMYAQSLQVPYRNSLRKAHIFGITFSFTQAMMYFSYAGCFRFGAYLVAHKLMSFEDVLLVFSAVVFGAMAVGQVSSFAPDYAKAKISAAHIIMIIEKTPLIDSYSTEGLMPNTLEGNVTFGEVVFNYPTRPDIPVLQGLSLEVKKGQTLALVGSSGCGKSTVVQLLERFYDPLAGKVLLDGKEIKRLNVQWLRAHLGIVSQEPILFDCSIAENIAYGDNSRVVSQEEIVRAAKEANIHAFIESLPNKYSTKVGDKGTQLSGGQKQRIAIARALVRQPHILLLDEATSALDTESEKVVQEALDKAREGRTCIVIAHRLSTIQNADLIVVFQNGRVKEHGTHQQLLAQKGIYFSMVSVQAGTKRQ

By IC50 is commonly meant the concentration needed to halve the response being measured. With `Cn1ncnc1[C@H]1c2n[nH]c(=O)c3cc(F)cc(c23)N[C@@H]1c1ccc(F)cc1` [talazoparib, Talazoparib], the IC50 on CYP2B6 was more than 50 µM; at CYP3A5, more than 50 µM; at ABCB1, more than 50 µM; on ABCG2 [2], 11.2 µM. In addition, in the data set with ABCG2 [1], the “effect on ABCG2 mRNA” value is “upregulate”. In addition, the “effect on ABCG2 protein level” value in the data set on ABCG2 [1] was “decreased”. For the same molecule, in the data set with MDCKII-par cells, the “effect on accumulations of probe substrate drugs” value is listed as “did not exhibit any significant effects”. Further, in the data set on ABCG2 [3], the ABCG2 substrate status entry is “not of ABCG2”. Moreover, in the data set “MTT proliferation assay”, the IC50 at 48 h was determined as 67.5 µM.

The values are drawn from article PMC9697930 (International Journal of Molecular Sciences, 2022).
